From EP3708565A1, “PYRIMIDINYLOXYPHENYLAMIDINES AND THE USE THEREOF AS FUNGICIDES” (Bayer AG, priority 2020, dated 2020) come the findings set out here.

One data set concerns Phakospora pachyrhizi. Nature of the data set: in vivo preventive test on Phakospora pachyrhizi (soybean rust). To be noted: for pest or weed control at 500 ppm: Glycine max, 288 h, 500 ppm of active ingredient, young soybean plants sprayed, inoculated after 24 hours, evaluated 12 days after the inoculation, read-out: efficacy; for efficacy: 500 ppm. Here is the method:
Example: in vivo preventive test on Phakospora pachyrhizi (soybean rust)
(§1) The active ingredients were made soluble and homogenized in a mixture of Dimethyl sulfoxide/Acetone/ /Tween® 80 and then diluted in water to the desired concentration.
The young plants of soybean were treated by spraying the active ingredient prepared as described above. Control plants were treated only with an aqueous solution of Acetone/Dimethyl sulfoxide/ […].
After 24 hours, the plants were contaminated by spraying the leaves with an aqueous suspension of Phakosporapachyrhizi spores. The contaminated soybean plants were incubated for 24 hours at 24°C and at 100% relative humidity and then for 11 days at 24°C and at 70-80% relative humidity.
The test was evaluated 12 days after the inoculation. 0% means an efficacy which corresponds to that of the control plants while an efficacy of 100% means that no disease was observed.

Data set [1] can be described thus: LogP measurement by HPLC on reversed phase columns (EEC directive 79/831 Annex V.A8). The data set is classed as physicochemical. As for the experimental part: If more than one LogP value is available within the same method, all the values are given and separated by "+".
Lambda-max-values were determined using UV-spectra from 200 nm to 400 nm and the peak values of the chromatographic signals.

The next data set deals with Puccinia recondita. Put plainly: in vivo preventive test on Puccinia recondita (brown rust on wheat). The settings on record: for pest or weed control at 500 ppm: Puccinia recondita, 264 h, 500 ppm of active ingredient, young wheat plants sprayed, inoculated after 24 hours, evaluated 11 days after the inoculation, read-out: efficacy; for efficacy: 500 ppm. Here is the method:
Example: in vivo preventive test on Puccinia recondita (brown rust on wheat)
as §1
The young plants of wheat were treated by spraying the active ingredient prepared as described above. Control plants were treated only with an aqueous solution of Acetone/Dimethyl sulfoxide/ Tween® 80.
After 24 hours, the plants were contaminated by spraying the leaves with an aqueous suspension of Puccinia recondita spores. The contaminated wheat plants were incubated for 24 hours at 20°C and at 100% relative humidity and then for 10 days at 20°C and at 70-80% relative humidity.
The test was evaluated 11 days after the inoculation. 0% means an efficacy which corresponds to that of the control plants while an efficacy of 100% means that no disease was observed.

In another data set the test system is Sphaerotheca fuliginea. Nature of the data set: in vivo preventive test on Sphaerotheca fuliginea (powdery mildew on cucurbits). The settings on record: 500 ppm of active ingredient, young gherkin plants sprayed, inoculated after 24 hours, evaluated 8 days after the inoculation; for pest or weed control at 500 ppm: Podosphaera fuliginea, 192 h, read-out: efficacy. As for the experimental part: Example: in vivo preventive test on Sphaerotheca fuliginea (powdery mildew on cucurbits)
as §1
The young plants of gherkin were treated by spraying the active ingredient prepared as described above. Control plants were treated only with an aqueous solution of Acetone/Dimethyl sulfoxide/ […].
After 24 hours, the plants were contaminated by spraying the leaves with an aqueous suspension of Sphaerotheca fuliginea spores. The contaminated gherkin plants were incubated for 8 days at 20°C and at 70-80% relative humidity.
The test was evaluated 8 days after the inoculation. 0% means an efficacy which corresponds to that of the control plants while an efficacy of 100% means that no disease was observed.

The mark [2] stands for this setting: reversed phase HPLC column, method [a]: LC-UV, acidic range, 0.1% formic acid in water and acetonitrile as eluent.
Where [3] appears, read: reversed phase HPLC column, method [b]: LC-UV, neutral range, 0.001 molar ammonium acetate solution in water and acetonitrile as eluent.
[4] abbreviates: method [a]: LC-UV, acidic range, 0.1% formic acid in water and acetonitrile as eluent.
The mark [5] stands for this setting: method [b]: LC-UV, neutral range, 0.001 molar ammonium acetate solution in water and acetonitrile as eluent.

For `CCN(C)C=Nc1cc(Br)c(Oc2ccnc(SC(C)(C)C)n2)cc1C` [I.001, N'-[5-bromo-4-(2-tert-butylsulfanylpyrimidin-4-yl)oxy-2-methylphenyl]-N-ethyl-N-methyl-methanimidamide], the pest or weed control at 500 ppm in the data set on Phakospora pachyrhizi, in the data set with Puccinia recondita and with Sphaerotheca fuliginea was at least 70% in each case. Besides, the chromatographic logP – broadly, a lipophilicity value derived from retention on a column – in data set [1] (setting [2]) stood at 1.72; in data set [1] (setting [3]), 4.95.

In the case of `CCN(C)C=Nc1cc(C)c(Oc2ccnc(SC3CCCC3)n2)cc1C` [I.012, N'-[4-(2-cyclopentylsulfanylpyrimidin-4-yl)oxy-2,5-dimethylphenyl]-N-ethyl-N-methylmethan-imidamide], the pest or weed control at 500 ppm in the data set on Phakospora pachyrhizi, in the data set with Puccinia recondita and in the data set with Sphaerotheca fuliginea was at least 70% throughout. Moreover, the chromatographic logP in data set [1] (setting [2]) came to 1.75.

Regarding `CCN(C)C=Nc1cc(C)c(Oc2ccnc(OC3CCCC3)n2)cc1C` [I.041, N'-[4-(2-cyclopentyloxypyrimidin-4-yl)oxy-2,5-dimethylphenyl]-N-ethyl-N-methylmethanimid-amide], the efficacy entry in the data set on Phakospora pachyrhizi, in the data set with Puccinia recondita and in the data set with Sphaerotheca fuliginea was “at least 70%” throughout. Further, the chromatographic logP in data set [1] (setting [4]) is 1.6; in data set [1] (setting [5]), 4.67.

Turning to `CCN(C)C=Nc1cc(Br)c(Oc2ccnc(Sc3ccccc3)n2)cc1C` [I.037, N'-[5-bromo-2-methyl-4-(2-phenylsulfanylpyrimidin-4-yl)oxyphenyl]-N-ethyl-N-methylmethan-imidamide], the pest or weed control at 500 ppm in the data set on Phakospora pachyrhizi, in the data set on Puccinia recondita and in the data set on Sphaerotheca fuliginea was at least 70% throughout. In addition, the chromatographic logP was 1.69 in data set [1] (setting [2]) and 4.8 in data set [1] (setting [3]).

As to `CCSc1nc(C)cc(Oc2cc(C)c(N=CN(C)CC)cc2C)n1` [I.019, N-ethyl-N'-[4-(2-ethylsulfanyl-6-methylpyrimidin-4-yl)oxy-2,5-dimethylphenyl]-N-methyl-methanimidamide], the pest or weed control at 500 ppm with Phakospora pachyrhizi, in the data set on Puccinia recondita and in the data set on Sphaerotheca fuliginea was at least 70% throughout. In data set [1] (setting [2]), the chromatographic logP was 1.52.

Regarding `CCN(C)C=Nc1cc(Br)c(Oc2ccnc(SCC(C)C)n2)cc1C` [I.007, N'-[5-bromo-2-methyl-4-[2-(2-methylpropylsulfanyl)pyrimidin-4-yl]oxyphenyl]-N-ethyl-N-methylmethanimidamide], the pest or weed control at 500 ppm with Phakospora pachyrhizi, with Puccinia recondita and in the data set with Sphaerotheca fuliginea was at least 70% throughout. The chromatographic logP in data set [1] (setting [2]) turned out to be 1.81; in data set [1] (setting [3]), 5.25.

As for `CCN(C)C=Nc1cc(C)c(Oc2ccnc(Sc3ccc(F)cc3)n2)cc1C` [I.010, N-ethyl-N'-[4-[2-(4-fluorophenyl)sulfanylpyrimidin-4-yl]oxy-2,5-dimethylphenyl]-N-methyl-methanimidamide], the pest or weed control at 500 ppm in the data set on Phakospora pachyrhizi, in the data set on Puccinia recondita and with Sphaerotheca fuliginea was at least 70% throughout. Moreover, in data set [1] (setting [2]), the chromatographic logP came to 1.6.

As for `CCN(C)C=Nc1cc(C)c(Oc2ccnc(/C=C/C(C)(C)C)n2)cc1C` [I.034, N'-[4-[2-[(E)-3,3-dimethylbut-1-enyl]pyrimidin-4-yl]oxy-2,5-dimethylphenyl]-N-ethyl-N-methylmethanimidamide], the pest or weed control at 500 ppm in the data set with Phakospora pachyrhizi, with Puccinia recondita and in the data set with Sphaerotheca fuliginea was at least 70% throughout. The chromatographic logP worked out at 1.66 in data set [1] (setting [2]) and 4.94 in data set [1] (setting [3]).

As for `CCN(C)C=Nc1cc(C)c(Oc2ccnc(CCC(C)(C)C)n2)cc1C` [I.003, N'-[4-[2-(3,3-dimethylbutyl)pyrimidin-4-yl]oxy-2,5-dimethylphenyl]-N-ethyl-N-methylmethan-imidamide], the pest or weed control at 500 ppm in the data set with Phakospora pachyrhizi, in the data set with Puccinia recondita and with Sphaerotheca fuliginea was at least 70% each time. The figures for the chromatographic logP in data set [1] (setting [2]) and in data set [1] (setting [3]) were 1.63 and 4.89, respectively.

As for `CCN(C)C=Nc1cc(C)c(Oc2ccnc(SC3CCCCC3)n2)cc1C` [I.011, N'-[4-(2-cyclohexylsulfanylpyrimidin-4-yl)oxy-2,5-dimethylphenyl]-N-ethyl-N-methylmethan-imidamide], the pest or weed control at 500 ppm with Phakospora pachyrhizi, with Puccinia recondita and in the data set with Sphaerotheca fuliginea was at least 70% in each case. The compound also registered a chromatographic logP in data set [1] (setting [2]) of 1.86.

As for `CCN(C)C=Nc1cc(C)c(Oc2cc(SC(C)(C)C)nc(C)n2)cc1C` [I.023, N'-[4-(6-tert-butylsulfanyl-2-methylpyrimidin-4-yl)oxy-2,5-dimethylphenyl]-N-ethyl-N-methyl-methanimidamide], the pest or weed control at 500 ppm in the data set with Phakospora pachyrhizi, in the data set with Puccinia recondita and in the data set with Sphaerotheca fuliginea was at least 70% in each case. The compound also yielded a chromatographic logP in data set [1] (setting [2]) of 1.99.

As for `CCN(C)C=Nc1cc(C)c(Oc2cc(C)nc(SC(C)C)n2)cc1C` [I.022, N'-[2,5-dimethyl-4-(6-methyl-2-propan-2-ylsulfanylpyrimidin-4-yl)oxyphenyl]-N-ethyl-N-methylmethanimidamide], the pest or weed control at 500 ppm with Phakospora pachyrhizi, in the data set on Puccinia recondita and with Sphaerotheca fuliginea was at least 70% in each case. Also, the chromatographic logP in data set [1] (setting [2]) amounted to 1.69.

For the compound `CCN(C)C=Nc1cc(C#N)c(Oc2ccnc(C(C)(C)C)n2)cc1C` [I.044, N'-[4-(2-tert-butylpyrimidin-4-yl)oxy-5-cyano-2-methylphenyl]-N-ethyl-N-methylmethanimid-amide], the efficacy entry in the data set with Phakospora pachyrhizi, with Puccinia recondita and in the data set on Sphaerotheca fuliginea was “at least 70%” throughout. The chromatographic logP in data set [1] (setting [4]) came out at 1.41; in data set [1] (setting [5]) it was 4.29.

Turning to `CCCSc1nccc(Oc2cc(C)c(N=CN(C)CC)cc2C)n1` [I.029, N'-[2,5-dimethyl-4-(2-propylsulfanylpyrimidin-4-yl)oxyphenyl]-N-ethyl-N-methylmethanimid-amide], the efficacy entry with Phakospora pachyrhizi, in the data set with Puccinia recondita and with Sphaerotheca fuliginea was “at least 70%” in each case. Further, the chromatographic logP in data set [1] (setting [4]) came to 1.46; in data set [1] (setting [5]), 4.61.

Turning to `CCCSc1nccc(Oc2cc(C)c(N=CN(C)CC)cc2Br)n1` [I.015, N'-[5-bromo-2-methyl-4-(2-propylsulfanylpyrimidin-4-yl)oxyphenyl]-N-ethyl-N-methylmethan-imidamide], the pest or weed control at 500 ppm with Phakospora pachyrhizi, with Puccinia recondita and in the data set on Sphaerotheca fuliginea was at least 70% throughout. For the same compound, the results for the chromatographic logP in data set [1] (setting [2]) and in data set [1] (setting [3]) were 1.66 and 4.86, respectively.

For the compound `CCN(C)C=Nc1cc(C)c(Oc2ccnc(SCCC(C)C)n2)cc1C` [I.002, N'-[2,5-dimethyl-4-[2-(3-methylbutylsulfanyl)pyrimidin-4-yl]oxyphenyl]-N-ethyl-N-methyl-methanimidamide], the pest or weed control at 500 ppm in the data set with Phakospora pachyrhizi, in the data set with Puccinia recondita and in the data set on Sphaerotheca fuliginea was at least 70% in each case. The chromatographic logP was 1.9 in data set [1] (setting [2]) and 5.66 in data set [1] (setting [3]).

Regarding `CCN(C)C=Nc1cc(C)c(Oc2ccnc(C(F)(F)F)n2)cc1C` [I.030, N'-[2,5-dimethyl-4-[2-(trifluoromethyl)pyrimidin-4-yl]oxyphenyl]-N-ethyl-N-methylmethan-imidamide], the pest or weed control at 500 ppm in the data set on Phakospora pachyrhizi, with Puccinia recondita and with Sphaerotheca fuliginea was at least 70% each time. The chromatographic logP in data set [1] (setting [2]) came out at 1.24; in data set [1] (setting [3]), 3.82.
